Legend:
H1299 cells = assay: qRT-PCR of TCF-regulated genes; assay type: cell-based
Description: RNA was extracted according to the manufacturer's instructions (Qiagen, Valencia, CA, USA), and cDNA was manufactured using qScript cDNA synthesis kit (Quanta BioSciences, Gaithersburg, MD, USA), followed by qPCR using SYBR green (Quanta BioSciences) on an iCycler5 (Bio-Rad, Hercules, CA, USA). Amplification of 36B4, a housekeeping gene, was used for normalizing gene expression values.

[1] = design: species or system SCID mice; details: mouse, in vivo
Method: Figure 5 Toxicity studies of RK-33 in mice • Following injection of 20 mg/kg of RK-33, twice a week for 7 weeks, extensive histopathological examination was carried out following necropsy. Identical patterns were observed both in the control and in the treated mice (n = 2). Samples were stained with H&E. Scale bar is 50 μm. • Pharmacokinetics of RK-33 in SCID mice at various time intervals. Results are mean ± SD from 5 mice. LC-MS/MS method was used to determine concentration of RK-33 in mouse plasma and tissue. • Liquid chromatography–mass spectrometry (LC-MS/MS) analysis was performed to determine different metabolites of RK-33. • RK-33 and metabolites characterized by LC-MS/MS in human liver microsomes using the scan mode function of the LC-MS/MS. • HAPI cells were treated with RK-33 (10 μM), HA14-1 (25 μM), or DMSO vehicle, followed by oligomycin (oligo, 0.5 μg/ml), FCCP (3 μM), and antimycin A (AA, 1 μM) while oxygen consumption rate (OCR) was measured. Pyruvate (10 mM) was added in combination with FCCP to ensure that substrate supply was not rate-limiting for maximal OCR. Data are mean ± SD from 2 to 3 wells and representative of independent experiments performed with two different HAPI passages. […] Significance was assessed by two-sided, unpaired t-test. […]

A549 cells = assay: 53BP1 and γH2AX foci after radiation (immunofluorescence); assay type: cell-based, human; details: 6 μM, 12 h before 2-Gy radiation
Method: A549 cells were allowed to attach overnight in chamber slides. For DDR experiments (Fig6A), cells were incubated with RK-33 for 12 h and then radiated with 2 Gy. After 0, 1, 6, and 24 h, cells were fixed and stained. Cells were fixed for 15 min in 4% formalin, washed with PBS, permeabilized (PBS containing 0.2% Triton X-100) for 5 min, and blocked for 30 min with 10% goat serum. […] Next, cells were washed with PBS and incubated with secondary antibodies, CY3 (1:200, goat anti-mouse, 115-165-071, Jackson Immuno Research) or Alexa fluor 488 (1:200, goat anti-rabbit, A11034, Invitrogen) for 1 h. Cells were washed, nuclei-stained with 4′,6-diamidino-2-phenylindole (DAPI), and cover-slipped. Photographs were taken with Nikon Eclipse 80i fluorescence microscope using a CoolSnap ES camera (Roper scientific, Sarasota, FL, USA).

[2] = system: A549, H1299, H23, and H460; assay: MTS viability assay, 72 h, lines with high DDX3 expression; assay type: cell-based; details: range over A549, H1299, H23, H460
Method: Proliferation was determined by counting cancer cells over time. Cells were seeded at 7.5 × 10^4 cells/well and counted daily with a TC10 automated cell counter (Bio-Rad, Hercules, CA, USA) at least three times. Viability of cancer cells was determined by MTS assay (CellTiter 96® AQueous One Solution, Promega, Madison, WI, USA) as described by the manufacturer. Briefly, 800–2,000 cells were allowed to attach overnight in a 96-well plate, treated with different concentrations of RK-33 and kept for 72 h. MTS reagent was kept for 2 h. Each experiment was repeated a minimum of three independent times.

DDX5 = biological target: T1, DDX5 (Homo sapiens, UniProt P17844); assay: Biotin bead pull-down assay with biotinylated RK-33, immunoblot; assay type: binding; details: biotinylated RK-33 molecules, 10 μM
T1 construct: Two plates of 70% confluent cells were lysed with IP lysis buffer; endogenous in cells
T1 sequence (P17844 whole entry): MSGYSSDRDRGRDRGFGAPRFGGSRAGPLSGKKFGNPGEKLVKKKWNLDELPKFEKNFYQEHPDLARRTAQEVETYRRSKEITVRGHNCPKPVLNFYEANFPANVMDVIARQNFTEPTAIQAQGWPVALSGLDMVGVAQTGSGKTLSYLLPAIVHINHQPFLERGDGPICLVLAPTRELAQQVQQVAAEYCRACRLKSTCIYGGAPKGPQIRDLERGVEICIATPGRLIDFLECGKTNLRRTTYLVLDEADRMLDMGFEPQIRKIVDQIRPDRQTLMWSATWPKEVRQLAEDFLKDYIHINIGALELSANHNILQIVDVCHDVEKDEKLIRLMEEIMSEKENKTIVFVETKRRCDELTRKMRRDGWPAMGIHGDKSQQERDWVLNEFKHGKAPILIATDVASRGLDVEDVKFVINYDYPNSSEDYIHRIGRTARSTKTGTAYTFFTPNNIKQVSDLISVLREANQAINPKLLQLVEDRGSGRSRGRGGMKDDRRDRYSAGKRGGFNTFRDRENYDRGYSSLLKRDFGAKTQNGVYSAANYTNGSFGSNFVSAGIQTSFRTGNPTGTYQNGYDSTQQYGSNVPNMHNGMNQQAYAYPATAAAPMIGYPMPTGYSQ
Method: Mean from 3 replicates with SD. • J, K Colony-forming assay of A549 and H3255 cells treated with RK-33 and with various doses of radiation 4 h later. Curves were fitted with a quadratic polynomial equation. Mean from 2 replicates with SD. P-values were determined by the extra sum of squares F-test. Source data are available online for this figure.
Two plates of 70% confluent cells were lysed with IP lysis buffer (Tris–HCl (pH 7.4) 25 mM, NaCl 150 mM, EDTA 1 mM, NP-40 1%, glycerol 5%, protease inhibitor). […] Streptavidin beads were added and incubated for 1 h at room temperature. The biotin-bead–RK-33 complex was extracted with a magnetic stand and washed seven times with PBS. Proteins were analyzed by immunoblot.

[3] = system: lung cancer cell lines (A549, H1299, H460, H23, and H196); assay: Combination experiments with chemotherapy; assay type: cell-based

diimidazo[4,5-d:4′,5′-f]-[1,3]diazepine [RK-33]
reduction of Axin-2 mRNA expression (H1299 cells): 1.8 fold | reduction of Cyclin D1 mRNA expression (H1299 cells): 2.4 fold | accumulation in organs (biodistribution) [1]: able to accumulate at therapeutic dose in various organs | persistence of radiation-induced DNA damage (53BP1 and γ-H2AX foci) (A549 cells): DNA damage persisted well beyond 24 h | IC50 [2]: 4.4 to 8.4 µM | binding to DDX5 in pull-down (DDX5): not to the closely related proteins DDX5 and DDX17 | synergy of RK-33 + cisplatin [3]: did not observe significant synergy | synergy of RK-33 + paclitaxel [3]: did not observe significant synergy

Reference: article PMC4492822 (EMBO Molecular Medicine, 2015)
